Assay results reported in patent US20150140121A1, “Compositions and Methods for Tight Junction Modulation” (Lankenau Institute for Medical Research, priority 2012, published 2015).
Where two headings read alike, the source gives them in different places.

Experiments:
LLC-PK1 cell layers [1] = test: Transepithelial electrical resistance (Rt) across LLC-PK1 cell layers; type: cell-based, porcine; details: for transepithelial resistance: LLC-PK1 cell layers
Experimental: (§1) LLC-PK1 is a porcine cell line model of the kidney proximal tubule.
The effect of zinc and/or quercetin on the electrical resistance across LLC-PK1 renal epithelial cell layers was tested. Briefly, LLC-PK1 renal epithelial cell layers were treated with either 100 μM zinc alone, 400 μM quercetin alone; or both agents together. The stimulation of transepithelial electrical resistance (Rt) by maximally effective concentrations of zinc alone and quercetin alone was in the range of 50-60% of control levels. […] The results shown in FIG. 8 represent the mean+/− standard error for 12 cell layers. P values are for one-sided Student's t tests.

claudin-1 [2] = details: cited from earlier work
Claudin-5 = Claudin-5 expression in LLC-PK1 cell layers (Western immunoblot); type: cell-based, porcine
Text: (§2) Zinc has long been known to be efficacious in the treatment of certain types of diarrhea. It has been determined that zinc can render certain TJ barriers less leaky. Zinc effects can vary depending upon the specific type of epithelial layer.

claudin 7 [3] = details: quercetin 0.2 mM; CACO-2; Amasheh et al. 2008; cited from earlier work
Claudin-7 = Claudin-7 expression in LLC-PK1 cell layers; type: cell-based, porcine; details: 400 μM Quercetin; LLC-PK1 cell layers; given as Incr (increase)
[4] = system: colonic (CACO-2) epithelial cell layers; details: quercetin treatment; Suzuki et al. 2009; cited from earlier work
Claudin-3 = Claudin-3 expression in LLC-PK1 cell layers (Western immunoblot); type: cell-based, porcine
Text: as §2

ZO-2 = details: quercetin; independent study, Suzuki et al. 2009; cited from earlier work
LLC-PK1 cell layers [5] = test: Mannitol flux / leak across LLC-PK1 cell layers; type: cell-based, porcine; details: for Mannitol Flux / mannitol leaking across the cell layer: LLC-PK1 cell layers; for Mannitol Flux: given as Decr (decrease)
Experimental: FIG. 7A provides a graph of transepithelial resistance of untreated (control) LLC-PK1 cell layers or LLC-PK1 cell layers treated with 50 μM, 100 μM, or 200 μM zinc. FIG. 7B provides a graph of ^14C-D-mannitol leak across untreated (control) LLC-PK1 cell layers or LLC-PK1 cell layers treated with 50 μM, 100 μM, or 200 μM zinc.
as §1

claudin 3 [6] = details: quercetin 0.2 mM; CACO-2; Amasheh et al. 2008; cited from earlier work
claudin-4 [7] = details: cited from earlier work
[8] = system: human colonic (CACO-2) epithelial cell layer; details: cited from earlier work
Claudin-2 = Claudin-2 expression in LLC-PK1 cell layers (Western immunoblot); type: cell-based, porcine
Text: as §2

Tricellulin [9] = test: Tricellulin expression in LLC-PK1 cell layers (Western immunoblot); type: cell-based, porcine
Text: as §2

Claudin-4 [10] = test: Claudin-4 expression in LLC-PK1 cell layers (Western immunoblot); type: cell-based, porcine
Text: as §2

occludin [11] = details: cited from earlier work
[12] = system: human colonic (CACO-2) epithelial cell layer; details: cited from earlier work; remark: listed apart in the source
epithelial TJs = details: arginine; Rhoads et al. 2009; cited from earlier work
TJ = details: glutamine; Seth et al. 2004; cited from earlier work
claudin-1 [13] = test: Claudin 1 amount / localization in colonic (CACO-2) epithelial cell layers; type: cell-based, human; details: 50 or 100 micromolar zinc; CACO-2 cell layer
Text: (§3) When the effects of 50 or 100 micromolar zinc were examined on the TJ permeability of a human colonic (CACO-2) epithelial cell layer, the results were quite different. Here the Rt increased as with the renal epithelium. However, there was an increase—as opposed to a decrease—in a D-mannitol diffusion. In other words, zinc decreased leak to salts but increased leak to small nonelectrolytes. […] Even though the overall cellular content of the tight junction protein(s) may not be affected, zinc may cause a ‘shift’ in certain tight junction protein (e.g., certain claudins) out of the tight junctional complex and into the cell's cytoplasm.

claudin 2 = test: Claudin 2 amount in colonic (CACO-2) epithelial cell layers; type: cell-based, human; details: 50 or 100 micromolar zinc; CACO-2 cell layer
Text: as §3

tricellulin [14] = test: Tricellulin amount in CACO-2 cell layers; type: cell-based, human; details: 50 or 100 micromolar zinc; CACO-2 cell layer
Text: as §3

[15] = system: human colonic (CACO-2) epithelial cell layer; test: D-mannitol diffusion across CACO-2 cell layers; type: cell-based; details: 50 or 100 micromolar zinc; CACO-2 cell layer
Text: as §3

Claudin-1 [16] = test: Claudin-1 expression in LLC-PK1 cell layers (Western immunoblot); type: cell-based, porcine; details: zinc at 50 and 100 micromolar; LLC-PK1 epithelium
Text: as §2

[17] = system: human colonic (CACO-2) epithelial cell layer; test: Transepithelial electrical resistance (Rt) across CACO-2 cell layers; type: cell-based; details: 50 or 100 micromolar zinc; CACO-2 cell layer
Text: as §3

claudin-4 [18] = test: Claudin 4 amount in colonic (CACO-2) epithelial cell layers; type: cell-based, human; details: 50 or 100 micromolar zinc; CACO-2 cell layer
Text: as §3

claudin 7 [19] = test: Claudin 7 amount in colonic (CACO-2) epithelial cell layers; type: cell-based, human; details: 50 or 100 micromolar zinc; CACO-2 cell layer
Text: as §3

occludin [20] = test: Occludin amount / localization in colonic (CACO-2) epithelial cell layers; type: cell-based, human; details: 50 or 100 micromolar zinc; CACO-2 cell layer
Text: as §3

ZO-1 [21] = details: zinc supplementation; small intestine; Zhang et al. 2009; cited from earlier work
claudin 5 = test: Claudin 5 amount in colonic (CACO-2) epithelial cell layers; type: cell-based, human; details: 50 or 100 micromolar zinc; CACO-2 cell layer
Text: as §3

claudin 3 [22] = test: Claudin 3 amount in colonic (CACO-2) epithelial cell layers; type: cell-based, human; details: 50 or 100 micromolar zinc; CACO-2 cell layer
Text: as §3

occludin [23] = details: zinc supplementation; small intestine; Zhang et al. 2009; cited from earlier work
small intestine = details: zinc supplementation, Zhang et al. 2009; cited from earlier work
Occludin [24] = test: Occludin expression in LLC-PK1 cell layers (Western immunoblot); type: cell-based, porcine; details: zinc at 50 and 100 micromolar; LLC-PK1 epithelium
Text: as §2

ZO-1 [25] = details: zinc; colonic (CACO-2) epithelia; Finamore et al. 2008; cited from earlier work
[26] = quercetin 0.2 mM, CACO-2, Amasheh et al. 2008
[27] = quercetin, independent study, Suzuki et al. 2009
[28] = 400 μM Quercetin, LLC-PK1 cell layers, given as Incr (increase)
[29] = 400 μM Quercetin, LLC-PK1 cell layers, given as Decr (decrease)
[30] = glutamine, CACO-2 epithelial cell layers, Li et al. 2009
[31] = zinc at 50 and 100 micromolar, LLC-PK1 epithelium
[32] = zinc, LLC-PK1 renal epithelial model

## O=c1c(O)c(-c2ccc(O)c(O)c2)oc2cc(O)cc(O)c12 [quercetin]
LLC-PK1 cell layers [1]; 400 μM Quercetin, given as Incr (increase)
  transepithelial resistance: Incr > 20%
LLC-PK1 cell layers [1]; quercetin (100, 200, 400 μM, FIG. 4A)
  transepithelial resistance: increased
claudin-1 [2]; [26]
  amount of claudin 1: unaffected
claudin-1 [2]; [27]
  cellular redistribution of claudin-1: cellular redistribution
Claudin-5; [28]
  Claudin-5: Incr 100%
Claudin-5; 400 μM quercetin, LLC-PK1 cells, FIG. 3B
  expression of Claudin 5: upregulated
Claudin 7 [3]
  amount of claudin 7: unaffected
Claudin-7
  Claudin-7: Incr 200%
[4]
  permeability of the electrically charged dye Lucifer yellow: decreased
Claudin-3; [29]
  Claudin-3: Decr 30%
ZO-2
  cellular redistribution of ZO-2: cellular redistribution
LLC-PK1 cell layers [5]; 400 μM Quercetin
  Mannitol Flux: Decr > 20%
LLC-PK1 cell layers [5]; quercetin (100, 200, 400 μM, FIG. 4B)
  mannitol leaking across the cell layer: decrease
Claudin 3 [6]
  amount of claudin 3: unaffected
claudin-4 [7]; [26]
  TJ content of claudin-4: dramatic increase
claudin-4 [7]; [27]
  increase in claudin-4: confirmed
[8]; [26]
  TJ permeability to the nonelectrolyte D-mannitol: no significant effect
Claudin-2; [29]
  Claudin-2: Decr 75%
Claudin-2; 400 μM quercetin, LLC-PK1 cells, FIG. 3A
  expression of Claudin 2: downregulated
Tricellulin [9]; [29]
  Tricellulin: Decr 15%
Claudin-4 [10]; [28]
  Claudin-4: Incr 75%
Occludin [11]; [26]
  amount of occludin: unaffected
Occludin [11]; [27]
  cellular redistribution of occludin: cellular redistribution
[12]; [26]
  TJ permeability to Na+ and Cl− ions: decreased
[12]; quercetin 0.2 mM, colonic (CACO-2) epithelial cell layers, Amasheh et al. 2008
  Rt: increased

## N=C(N)NCCC[C@H](N)C(=O)O [arginine]
Epithelial TJs
  barrier-enhancing effects (compared with glutamine): very similar barrier-enhancing effects

## NC(=O)CC[C@H](N)C(=O)O [glutamine]
claudin-1 [2]; [30]
  claudin-1 expression: increasing
TJ
  toxicity-related increases in TJ leakiness: reverse
[8]; [30]
  mannitol diffusion: decreased
[12]; [30]
  Rt: increased

## [Zn] [zinc]
claudin-1 [13]
  claudin 1 amount: no changes
Claudin 2
  claudin 2 amount: significant decreases
Tricellulin [14]
  tricellulin amount: no changes
[15]
  D-mannitol diffusion: increase
Claudin-1 [16]
  claudin 1 expression by Western immunoblot: none had exhibited increased or decreased expression
[17]
  Rt: increased
LLC-PK1 cell layers [1]; 100 μM Zn, given as Incr (increase)
  transepithelial resistance: Incr > 40%
LLC-PK1 cell layers [1]; zinc (50, 100, 200 μM, FIG. 7A)
  transepithelial resistance: increased
LLC-PK1 cell layers [1]; zinc at 50 and 100 micromolar, renal proximal tubular-like (LLC-PK1) epithelium
  transepithelial electrical resistance (Rt): increased
claudin-4 [18]
  claudin 4 amount: no changes
Claudin-5; [31]
  claudin 5 expression by Western immunoblot: none had exhibited increased or decreased expression
Claudin 7 [19]
  claudin 7 amount: significant decreases
Occludin [20]
  occludin amount: no changes
ZO-1 [21]
  levels of ZO-1: increased
Claudin-3; [31]
  claudin 3 expression by Western immunoblot: none had exhibited increased or decreased expression
Claudin 5
  claudin 5 amount: no changes
LLC-PK1 cell layers [5]; 100 μM Zn
  Mannitol Flux: Decr > 20%
LLC-PK1 cell layers [5]; zinc (50, 100, 200 μM, FIG. 7B)
  mannitol leaking across the cell layer: decrease
LLC-PK1 cell layers [5]; [31]
  transepithelial diffusion of D-mannitol: decreased
Claudin 3 [22]
  claudin 3 amount: no changes
Occludin [23]
  levels of occludin: increased
Small intestine
  leakage of the small non-electrolyte lactulose: decreasing
Occludin [24]
  occludin expression by Western immunoblot: none had exhibited increased or decreased expression
Claudin-2; [31]
  claudin 2 expression by Western immunoblot: none had exhibited increased or decreased expression
Claudin-2; [32]
  shift of claudin 2 out of the tight junctional complex into the cytoplasm: has been observed
Tricellulin [9]; [31]
  tricellulin expression by Western immunoblot: none had exhibited increased or decreased expression
Claudin-4 [10]; [31]
  claudin 4 expression by Western immunoblot: none had exhibited increased or decreased expression
Claudin-4 [10]; [32]
  shift of claudin 4 out of the tight junctional complex into the cytoplasm: has been observed
Occludin [11]; zinc, colonic (CACO-2) epithelia, Finamore et al. 2008
  localization of occludin: regulate the localization
ZO-1 [25]
  localization of ZO-1: regulate the localization
